Counter-ions that a name gives are not always drawn. Like-named read-outs stand apart in the source and are kept apart here.
Columns and labels:
[1] = Size of particles delivered by DP-4 Dry Powder Insufflator, bright-field microscopy; type: physicochemical; conditions: roughly spherical particles
Method: Particles that were delivered by the DP-4 Dry Powder Insufflator were analyzed by bright-field microscopy. […] Sizes were measured using Cell^D Imaging software (Olympus).

[2] = system: Calu-3 cells; assay: Transport studies across Calu-3 monolayers, compounds applied in solution (SLE, ALE), Papp
[3] = as above; conditions: human; for Papp at 120 min, 10 μg/ml: pH 7.4, Papp values for fluorescein, n = 12
[4] = system: Calu-3 cells; assay: Transport of aerosolized compounds across Calu-3 monolayers (AID_M MicroSprayer, AID_D DP-4 insufflator); conditions: for Dye transport relative to SLE: application with DP-4 Dry Powder Insufflator (AID_D); for Dye transport relative to SLE incubation: application with MicroSprayer IA-1C Aerosolizer (AID_M)
Method: (§1) 0.5 x 10^6 Calu-3 cells (passage 32–38) were seeded per membrane and different exposure systems were used (Fig A in S1 File). To discriminate between the different exposures, the following terminology is used. Cultures with cells supplied with medium only from the basolateral side are termed air-liquid interface culture. In submersed liquid exposure (SLE) cells are cultured in submersion and exposed with compound dissolved in buffer. In the air liquid exposure (ALE) cells are cultured at an air-liquid interface and the compound dissolved in buffer is applied to the cells. For air-liquid interface deposition (AID) cells are cultured at an air-liquid interface and exposed to the compound applied as liquid aerosols by MicroSprayer IA-1C Aerosolizer (AID_M) or as powder aerosols by DP-4 Dry Powder Insufflator (AID_D). For comparison of the different exposure systems Calu-3 cells cultured for 11 days on 3 μm 12-well insert (Greiner Bio-One) were used.
(§2) For SLE and ALE exposures the apical compartment was filled with 500 μL and the basolateral compartment with 1500 μL. […] For AID studies the basal compartment was filled with 700 μl, and 200 μl of drug dissolved in Krebs-Ringer buffer were sprayed on each Transwell insert using the MicroSprayer IA-1C Aerosolizer (AID_M exposure). […] 100 μl samples from the basolateral compartment were taken at 0–30–60–90–120 min and replaced with pre-warmed Krebs-Ringer buffer. […] At the end of the SLE and ALE studies the content of the basolateral compartment and 10 μl of the apical compartment were collected. […] The total volume of this solution was determined and this value minus the added 100 μl used for calculations of drug concentrations. The entire content of the basolateral compartment and 10 μl of the apical compartment were collected.
(§3) The MicroSprayer IA-1C Aerosolizer (PennCentury Inc., Wyndmoor, PA) was used to mimic nebulization of the compounds. The device consists of a thin, flexible, stainless steel tube measuring 0.64 mm in diameter and 50.8 cm in length attached to the light, hand-operated, high-pressure syringe FMJ-250. A unique patented atomizer at the very tip of the tube generates the aerosol with a mass median diameter of 16–22 μm (http://www.penncentury.com/products/IA_1C.php). The device was fixed at a distance of 11 cm between tip of the MicroSprayer and the rim of the exposure plate. Inserts were transferred to a separate (exposure) plate to avoid contamination of the adjacent inserts and 200 μl of the aerosol were applied per well (Fig B, a in S1 File). After the treatment the insert was replaced into the original plate for transport studies. The device was cleaned with 70% ethanol and aqua dest. at the end of the experiments and dried at 60°C overnight.
(§4) Damage of monolayer integrity was interpreted as difference between TEER values before and after the experiments > 100 Ω*cm^2.

[5] = system: Calu-3 cells; conditions: cited from earlier work; for Papp values of rhodamine 123 reported: ref [68],[70]
[6] = system: Calu-3 cells
Method: as §1, §2, §3, §4

[7] = system: Calu-3 cells; conditions: human, pH 7.4
[8] = in vitro; conditions: human, pH 7.4, Papp
[9] = pH 7.4, Papp, SLE (submersed culture, compound in buffer), n = 4
[10] = pH 7.4, Papp, ALE (air-liquid interface culture, compound in buffer), n = 4

Compound: CCCC1O[C@@H]2C[C@H]3[C@@H]4CCC5=CC(=O)C=C[C@]5(C)[C@H]4[C@@H](O)C[C@]3(C)[C@]2(C(=O)CO)O1 (stereo partly shown) [Budesonide, budesonide]
- Size of delivered single particles [1]: 3.2± 1.3 μm
- Ratio Papp (ALE/ SLE) [2]: 1.36
- Amount of budesonide in the cells ([2]; cell lysis after the last sample, total recovered amount 19.3±0.7 μg): 0.96 µg
- Change of budesonide transport on co-incubation with formoterol ([2]; solution, SLE and ALE, mixture 50 μM budesonide and 0.5 mM formoterol fumarate): did not show changes
- Papp at 120 min ([3]; pH 7.4): 17.9 ± 1.36 ×10⁻⁶ cm/s
- Papp at 120 min [3, 9]: 13.18 ± 0.06 ×10⁻⁶ cm/s
- Transport in the fixed dose combination Symbicort versus applied alone ([4]; DP-4 Dry Powder Insufflator (AID_D), n = 3): no differences

Compound: O=C1OC2(c3ccc(O)cc3Oc3cc(O)ccc32)c2ccccc21 [Fluorescein, Sodium fluorescein]
- Size of delivered single particles [1]: 1.1±0.3 μm
- Papp values of fluorescein published by other groups ([5]; SLE, ref [8],[41],[49],[65]–[69]): 0.1 x 10–6 cm/s
- Ratio Papp (ALE/ SLE) [2]: 3.00
- Papp at 120 min, 10 μg/ml ([3]; Air-liquid interface culture, 0.4 μm pores): 0.23 ± 0.04 ×10⁻⁶ cm/s
- Papp at 120 min, 10 μg/ml ([3]; Air-liquid interface culture, 3 μm pores): 0.27 ± 0.08 ×10⁻⁶ cm/s
- Papp at 120 min, 10 μg/ml ([3]; Submersed culture, 3 μm pores): 0.09 ± 0.04 ×10⁻⁶ cm/s
- Papp at 120 min [3, 10]: 0.27 ± 0.08 ×10⁻⁶ cm/s
- Papp at 120 min [3, 9]: 0.09 ± 0.04 ×10⁻⁶ cm/s
- Dye transport relative to SLE [4]: 131.7 times
- Dye transport relative to SLE incubation [4]: 4.3 times

Compound: COc1ccc(CC(C)NCC(O)c2ccc(O)c(NC=O)c2)cc1 (stereo not shown) [Formoterol, formoterol fumarate dihydrate]
- Transport in the fixed dose combination Symbicort versus applied alone [6]: significantly higher
- Papp [7]: 1.72±0.24 10^−6 cm/s
- Ratio Papp (ALE/ SLE) [7]: 1.73
- Papp [8]: 2.98 ± 0.79 ×10⁻⁶ cm/s

Compound: COC(=O)c1ccccc1-c1c2ccc(=N)cc-2oc2cc(N)ccc12 [Rhodamine 123, rhodamine 123]
- Papp values of rhodamine 123 reported ([5]; ALE): 2.27 ×10⁻⁶ cm/s
- Papp values of rhodamine 123 reported ([5]; SLE): 0.49 ×10⁻⁶ cm/s
- Ratio Papp (ALE/ SLE) [2]: 3.86
- Papp at 120 min [3, 10]: 0.27 ± 0.09 ×10⁻⁶ cm/s
- Papp at 120 min [3, 9]: 0.07 ± 0.02 ×10⁻⁶ cm/s
- Dye transport relative to SLE [4]: 48.2 times
- Dye transport relative to SLE incubation [4]: 3.2 times

— article PMC4537286, “Permeation of Therapeutic Drugs in Different Formulations across the Airway Epithelium In Vitro” (PLoS ONE, 2015)
